Drawing on US8507490B2, “Tetrasubstituted pyridazine hedgehog pathway antagonists” (Eli Lilly and Company, priority 2008, dated 2013), this text covers IC50 for two compounds.

Structures can show the parent of a compound that is named as a salt.

This assay concerns Gli1 transcript in Daoy cells (Shh signaling). The assay can be described thus: Functional assay for measuring the inhibition of Gli1 in Daoy cells (bDNA assay of Gli1 transcript after Shh-conditioned media stimulation). The class given is cell-based. The settings on record: Homo sapiens; Daoy cells stimulated with Shh-CM, 24 hours incubation with compound, Gli1 bDNA luminescence. Here is the method: Biological activity is determined using a functional assay in Daoy neuronal cancer cells and measures levels of Gli1 ribonucleic acid via a bDNA (branched deoxyribonucleic acid) assay system (Panomics, Inc., Fremont, Calif.). Gli was originally discovered in a Glioblastoma cell line and encodes a zinc finger protein that is activated by Shh signaling. The maximum response is obtained by inducing Gli1 transcription in the Daoy cells with conditioned medium (human embryonic kidney, HEK-293 cells stably expressing recombinant Shh) for 24 hours and then measuring the amount of stimulated Gli1 transcript. […]
The bDNA assay system utilizes the technology of branched-chain DNA to allow amplification of a target ribonucleic acid (transcript). […] The addition of a chemilumigenic substrate during the amplification step allows for detection using luminescence. […]
Daoy cells are grown to confluency in tissue culture T225-flasks in Daoy growth media containing Minimum Essential Medium (MEM) plus 10% Fetal Bovine Serum (FBS) with […] non-essential amino acids and 1 mM sodium pyruvate. The cells are removed from the T225-flasks using trypsin ethylenediaminetetraacetic acid (EDTA), centrifuged, resuspended in media, and then counted. […]

`Cc1c(-c2ccc(F)cc2)nnc(N2CCC(N(C)C(=O)[C@@H]3CCCCN3)CC2)c1C` [Example 34, (S)-N-(1-(6-(4-Fluorophenyl)-4,5-dimethylpyridazin-3-yl)piperidin-4-yl)-N-methylpiperidine-2-carboxamide dihydrochloride]: the IC50 was roughly 1.22 nM.

`Cc1c(-c2ccc(C#N)cc2)nnc(N2CCC(N(C)C(=O)c3cccnc3C(F)(F)F)CC2)c1C` [Example 14, N-(1-(6-(4-Cyanophenyl)-4,5-dimethylpyridazin-3-yl)piperidin-4-yl)-N-methyl-2-(trifluoromethyl)nicotinamide dihydrochloride]: the IC50 is roughly 1.27 nM.
